Assay results from PubChem BioAssay AID1996.
Converted amounts (≈) assume the structure as drawn.

Conditions: buffer; pH 7.4; 200.0 µM

Q: For `COc1ccc(C(=O)OCC(=O)NCc2ccc3c(c2)OCO3)cc1S(=O)(=O)N1CCOCC1`, which solubility kinetic is on record?
A: 12.2 µg/mL (≈ 24.8 µM)

Q: For `Cc1ccc2nc(SCC(=O)Nc3nonc3N)[nH]c2c1`, which solubility kinetic is on record?
A: 39 µg/mL (≈ 128 µM)

Q: Which solubility kinetic does the source give for `Cn1cc(S(=O)(=O)NCc2ccc3c(c2)OCO3)c(C(F)(F)F)n1` here?
A: > 54.5 µg/mL

Q: For `Cc1ccccc1C(=O)NCC(=O)NC1CC1`, which solubility kinetic is on record?
A: > 34.8 µg/mL

Q: Which solubility kinetic does the source give for `CCc1ccc(CNC(=O)C(=O)NCC2CCCO2)cc1` (centres undefined) here?
A: 17.6 µg/mL (≈ 60.6 µM)

Q: Which solubility kinetic does the source give for `CC1(C)CC(=O)C2=C(C1)NC(=O)NC2c1ccc([N+](=O)[O-])cc1` (centres undefined) here?
A: > 47.3 µg/mL

Q: For `O=C(O)C(=O)O.Oc1ccccc1CNCCCN1CCOCC1`, which solubility kinetic is on record?
A: 41.5 µg/mL

Q: For `O=C(O)COCC(=O)Nc1ccc2c(c1)oc1ccccc12`, which solubility kinetic is on record?
A: > 44.9 µg/mL

Q: For `CC1(C)C2SCC(=O)N2CCN1CC(=O)NN` (centres undefined), which solubility kinetic is on record?
A: > 38.8 µg/mL

Q: For `Cc1c(C)n(CCC(=O)O)c2ccccc12`, which solubility kinetic is on record?
A: > 32.6 µg/mL

Q: For `Cn1c(=O)c2c(nc(Sc3ccccc3N)n2C)n(C)c1=O`, which solubility kinetic is on record?
A: 39.1 µg/mL (≈ 123 µM)

Q: Which solubility kinetic does the source give for `COc1ccc(S(=O)(=O)NC2CCCCCC2)c(OC)c1` here?
A: 9.4 µg/mL (≈ 30 µM)

Q: With `CC(=O)Nc1ccc(C(=O)/C=C/c2ccc[nH]2)cc1` as the molecule, how does the solubility kinetic read?
A: 2.9 µg/mL (≈ 11.4 µM)

Q: With `COc1ccc(C(=O)NCC(=O)OCC(=O)NCc2cccs2)cc1` as the molecule, how does the solubility kinetic read?
A: > 54.4 µg/mL

Q: Which solubility kinetic does the source give for `CC(=O)NC(CC(=O)N(C)C1CCCCC1)c1ccccc1` (centres undefined) here?
A: > 45.4 µg/mL

Q: For `COc1cccc(CNC(=O)COC(=O)c2nn(C)c(=O)c3ccccc23)c1`, which solubility kinetic is on record?
A: > 57.2 µg/mL

Q: For `Cc1ccc(C(=O)OCC(=O)NCc2ccco2)cc1C`, which solubility kinetic is on record?
A: 12.8 µg/mL (≈ 44.6 µM)

Q: Which solubility kinetic does the source give for `O=C(C(Cl)c1ccccc1)N1CCCC1` (centres undefined) here?
A: 33.1 µg/mL (≈ 148 µM)

Q: Which solubility kinetic does the source give for `COC(=O)CC1C(=O)NCCN1C(=O)Nc1cccc(Cl)c1` (centres undefined) here?
A: 48.8 µg/mL (≈ 150 µM)

Q: With `Cc1ccc(S(=O)(=O)N2CCn3cccc3C2C)cc1` (centres undefined) as the molecule, how does the solubility kinetic read?
A: > 43.6 µg/mL

Q: Which solubility kinetic does the source give for `Cc1ccc(S(=O)(=O)CC(=O)Nc2cccc(C)n2)cc1` here?
A: 11.5 µg/mL (≈ 37.8 µM)

Q: For `Cc1ccc(CSCC(=O)Nc2ccccc2)cc1`, which solubility kinetic is on record?
A: 33.4 µg/mL (≈ 123 µM)

Q: For `O=C(NCCNC(=O)c1cc(Cl)ccc1Cl)c1cnccn1`, which solubility kinetic is on record?
A: > 50.9 µg/mL

Q: For `CC(C)c1ccc(S(=O)(=O)Nc2ccc3c(c2)OCO3)cc1`, which solubility kinetic is on record?
A: 26.4 µg/mL (≈ 82.7 µM)

Q: With `Cc1cc2c(OCC(O)CNCc3ccco3)cccc2[nH]1` (centres undefined) as the molecule, how does the solubility kinetic read?
A: 43.4 µg/mL (≈ 144 µM)

Q: For `O=C1CCN(C(=O)CCCn2c(=O)oc3ccccc32)CC1`, which solubility kinetic is on record?
A: > 45.3 µg/mL

Q: For `O=C(CNC(=O)c1ccccc1F)OC1CCOC1=O` (centres undefined), which solubility kinetic is on record?
A: > 42.2 µg/mL

Q: Which solubility kinetic does the source give for `Cc1ccc(C(=O)N2CCN(c3ncnc4c(C)csc34)CC2)cc1` here?
A: 4.3 µg/mL (≈ 12.2 µM)

Q: With `O=c1[nH]c(/C=C/c2cccc([N+](=O)[O-])c2)c([N+](=O)[O-])c(=O)[nH]1` as the molecule, how does the solubility kinetic read?
A: 34.8 µg/mL (≈ 114 µM)

Q: With `CC(CN1C(C)CCCC1C)OC(=O)c1ccc(Cl)cc1` (centres undefined) as the molecule, how does the solubility kinetic read?
A: > 46.5 µg/mL

Q: For `CC(NC(=O)CN1C(=O)NC2(CCCC2)C1=O)c1ccc(Cl)cc1Cl` (centres undefined), which solubility kinetic is on record?
A: 51.8 µg/mL (≈ 135 µM)

Q: Which solubility kinetic does the source give for `O=C(COC(=O)c1ccc(Cl)nc1)NCCc1ccccc1` here?
A: 45.5 µg/mL (≈ 143 µM)

Q: For `CCOc1ccc(N(C)S(=O)(=O)c2ccc(C)c(C(=O)N3CCN(Cc4ccc5c(c4)OCO5)CC3)c2)cc1`, which solubility kinetic is on record?
A: 15.2 µg/mL (≈ 27.6 µM)

Q: Which solubility kinetic does the source give for `O=C(NCc1ccco1)/C(=C\c1cccs1)NC(=O)c1ccccc1` here?
A: > 52.9 µg/mL

Q: For `CC(=O)OCC(=O)Nc1c(C)cccc1C`, which solubility kinetic is on record?
A: > 33.2 µg/mL

Q: Which solubility kinetic does the source give for `CC1=NCCN1S(=O)(=O)c1c(C(C)C)cc(C(C)C)cc1C(C)C` here?
A: 16.8 µg/mL (≈ 47.9 µM)

Q: For `Cc1ccc(N2C(=O)C3C4C=CC(CC4)C3C2=O)c([N+](=O)[O-])c1` (centres undefined), which solubility kinetic is on record?
A: 17.7 µg/mL (≈ 56.7 µM)

Q: With `CC(NC(=O)c1ccccc1F)C1CC1` (centres undefined) as the molecule, how does the solubility kinetic read?
A: > 31.1 µg/mL

Q: Which solubility kinetic does the source give for `O=C(C(c1ccccc1)c1ccccc1)N1CC[C@@]2(O)CCCC[C@H]2C1` here?
A: > 52.4 µg/mL

Q: Which solubility kinetic does the source give for `O=C(CSc1nc(-c2ccccc2)cc(=O)[nH]1)Nc1ccccc1` here?
A: 1.3 µg/mL (≈ 3.85 µM)

Q: For `COc1cccc(C(=O)Nc2ccc(NC(=O)C3CC3)nc2)c1`, which solubility kinetic is on record?
A: 1.6 µg/mL (≈ 5.14 µM)

Q: Which solubility kinetic does the source give for `COc1ccc(NC(=O)COC(=O)C2CC3C=CC2C3)cc1` (centres undefined) here?
A: > 45.2 µg/mL

Q: For `N#Cc1c(F)cccc1NCc1cccnc1`, which solubility kinetic is on record?
A: 33.2 µg/mL (≈ 146 µM)

Q: For `COc1ccc(CC(=O)OCC(=O)Nc2ccc(Cl)cc2C)cc1`, which solubility kinetic is on record?
A: 9 µg/mL (≈ 25.9 µM)

Q: Which solubility kinetic does the source give for `Cc1ccc(C(=O)NCC(=O)Nc2ccc3c(c2)CCC3)cc1C` here?
A: 2.6 µg/mL (≈ 8.06 µM)

Q: With `CC(C(=O)NC1CCCC1)N1C(=O)c2cccc3cccc1c23` (centres undefined) as the molecule, how does the solubility kinetic read?
A: > 46.3 µg/mL

Q: Which solubility kinetic does the source give for `NC(=S)c1cc2cc(Cl)ccc2oc1=O` here?
A: 1.6 µg/mL (≈ 6.68 µM)

Q: With `CCCCCn1c(N2CCCC2)nc2c1c(=O)n(C)c(=O)n2C` as the molecule, how does the solubility kinetic read?
A: > 47.9 µg/mL

Q: With `CN1CCC(=C(c2ccccc2)c2ccc(Br)cc2)CC1.Cl` as the molecule, how does the solubility kinetic read?
A: 53.1 µg/mL

Q: For `Cc1ccc(C)c(CNC(=O)Nc2ccccc2)c1`, which solubility kinetic is on record?
A: 0.8 µg/mL (≈ 3.15 µM)

Q: Which solubility kinetic does the source give for `Cc1ccc2oc(C(=O)N3CCN(CCO)CC3)c(C)c2c1` here?
A: > 45.4 µg/mL

Q: For `CN(NC1OC(=O)c2ccccc21)c1ccc(Cl)cc1[N+](=O)[O-]` (centres undefined), which solubility kinetic is on record?
A: > 50.1 µg/mL

Q: For `CCOC(=O)c1ccc(NC(=O)CN2C(=O)CN(C(C)=O)C2=S)cc1`, which solubility kinetic is on record?
A: 51.8 µg/mL (≈ 143 µM)

Q: Which solubility kinetic does the source give for `c1ccc2c(-c3cncc4ccccc34)cncc2c1` here?
A: 32.1 µg/mL (≈ 125 µM)

Q: Which solubility kinetic does the source give for `O=C(Cc1cccs1)NCc1cccc(C(F)(F)F)c1` here?
A: 42.1 µg/mL (≈ 141 µM)

Q: With `COc1ccccc1CNC(=O)CN1C(=O)NC2(CCCCCCC2)C1=O` as the molecule, how does the solubility kinetic read?
A: > 56 µg/mL

Q: For `CC(C)(C)c1cc(NC(=O)Nc2ccccc2OC(F)(F)F)no1`, which solubility kinetic is on record?
A: < 0.2 µg/mL

Q: With `CC(=O)N1CCN(C(=O)c2ccc(Cl)c(S(=O)(=O)N3CCCC3)c2)CC1` as the molecule, how does the solubility kinetic read?
A: > 60 µg/mL

Q: Which solubility kinetic does the source give for `O=C(COc1ccccc1)NCCSCc1ccccc1Cl` here?
A: 14.7 µg/mL (≈ 43.8 µM)

Q: With `O=C(COC(=O)c1ccco1)NC12CC3CC(CC(C3)C1)C2` as the molecule, how does the solubility kinetic read?
A: 2.2 µg/mL (≈ 7.25 µM)

Q: Which solubility kinetic does the source give for `Cc1cccc(CC(=O)N2CCN(C(=O)c3ccco3)CC2)c1` here?
A: > 46.9 µg/mL

Q: For `CC(C)(C)CN1CCN(CC#Cc2ccccc2)CC1CCO` (centres undefined), which solubility kinetic is on record?
A: > 47.2 µg/mL

Q: For `CCN(CC(=O)NCc1ccc(Cl)cc1)C(=O)/C=C/c1ccccc1`, which solubility kinetic is on record?
A: 2.8 µg/mL (≈ 7.85 µM)

Q: With `Nc1ccccc1C(=O)NCCCN1CCOCC1` as the molecule, how does the solubility kinetic read?
A: > 39.5 µg/mL

Q: With `S=c1[nH]c2ccccc2n2c(=S)[nH]nc12` as the molecule, how does the solubility kinetic read?
A: > 35.1 µg/mL

Q: With `Cc1cccc(Nc2ncccc2C(=O)O)c1C` as the molecule, how does the solubility kinetic read?
A: > 36.3 µg/mL

Q: With `CC1CC(=O)Nc2ccccc2N1C(=O)Nc1ccc(F)cc1F` (centres undefined) as the molecule, how does the solubility kinetic read?
A: > 49.7 µg/mL

Q: For `CC(NC(=O)COc1cccnc1[N+](=O)[O-])c1ccc(Cl)cc1Cl` (centres undefined), which solubility kinetic is on record?
A: 44.1 µg/mL (≈ 119 µM)

Q: Which solubility kinetic does the source give for `O=C1C(CCS(=O)c2ccccc2)C(=O)N(c2ccccc2)N1c1ccccc1` (centres undefined) here?
A: > 60.7 µg/mL

Q: For `Cc1cccc(Nc2nc(OCC#N)nc(N(C)C)n2)c1`, which solubility kinetic is on record?
A: 2.8 µg/mL (≈ 9.85 µM)

Q: For `O=C1c2ccccc2NC(c2ccccc2O)N1c1ccc(F)cc1` (centres undefined), which solubility kinetic is on record?
A: 5.5 µg/mL (≈ 16.4 µM)

Q: Which solubility kinetic does the source give for `O=C(COC(=O)CCNS(=O)(=O)c1ccccc1)NC1CC1` here?
A: 43.8 µg/mL (≈ 134 µM)

Q: For `CCOc1ccc(N/C(=N/c2nc(C)cc(C)n2)NC(C)=O)cc1`, which solubility kinetic is on record?
A: 15.1 µg/mL (≈ 46.1 µM)

Q: With `O=C(CSCc1ccc(Cl)cc1)NCCSCc1ccco1` as the molecule, how does the solubility kinetic read?
A: 36.3 µg/mL (≈ 102 µM)

Q: For `O=C(NC1CCSC1=O)C1CC(=O)N(c2ccc(F)cc2)C1` (centres undefined), which solubility kinetic is on record?
A: 46.2 µg/mL (≈ 143 µM)

Q: For `CN1CCC(N(C)CC(O)c2ccccc2)CC1.O=C(O)C(=O)O` (centres undefined), which solubility kinetic is on record?
A: > 50.8 µg/mL

Q: Which solubility kinetic does the source give for `CC(NC(=O)C12CC3CC(C)(CC(C)(C3)C1)C2)c1ccncc1` (centres undefined) here?
A: 41.9 µg/mL (≈ 134 µM)

Q: Which solubility kinetic does the source give for `O=C1CCc2cc(S(=O)(=O)Nc3ccccc3F)ccc2N1` here?
A: > 48.1 µg/mL

Q: Which solubility kinetic does the source give for `COc1cc(NC(=O)CC(C)n2ccnc2)cc(OC)c1` (centres undefined) here?
A: > 43.4 µg/mL

Q: Which solubility kinetic does the source give for `COC(=O)c1cc(-c2cccc([N+](=O)[O-])c2)c2c(=O)[nH]c(=O)n(C)c2n1` here?
A: 1.1 µg/mL (≈ 3.09 µM)

Q: With `O=[N+]([O-])c1ccc(CSc2ncnc3ccccc23)cc1` as the molecule, how does the solubility kinetic read?
A: 5.6 µg/mL (≈ 18.8 µM)

Q: Which solubility kinetic does the source give for `CCOc1ccc(CNC(=S)Nc2ccccc2)cc1Cl` here?
A: 1.6 µg/mL (≈ 4.99 µM)

Q: For `CN(Cc1ccc(F)cc1)C(=O)CCc1nnc(-c2ccccc2)o1`, which solubility kinetic is on record?
A: > 50.9 µg/mL

Q: For `COc1ccccc1OCC(O)CN1CCN(C(=O)c2ccccc2)CC1.Cl` (centres undefined), which solubility kinetic is on record?
A: > 61 µg/mL
